Assay results taken from ChEMBL document CHEMBL1201862, “PubChem BioAssay data set” (2004).
Calls of active or inactive are those of the source.

Legend:
[1] = molecular target: T1, RNA-binding protein pos-1 (Caenorhabditis elegans, UniProt G5EF15); assay: inhibitors of POS-1/mex-3 RNA binding, dose response, biochemical, fluorescence polarization (AID 1964);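 further: purified POS-1 fused to maltose binding protein made in E. coli; potency of compounds blocking POS-1 binding to fluorescent RNA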
T1 sequence (G5EF15 whole entry): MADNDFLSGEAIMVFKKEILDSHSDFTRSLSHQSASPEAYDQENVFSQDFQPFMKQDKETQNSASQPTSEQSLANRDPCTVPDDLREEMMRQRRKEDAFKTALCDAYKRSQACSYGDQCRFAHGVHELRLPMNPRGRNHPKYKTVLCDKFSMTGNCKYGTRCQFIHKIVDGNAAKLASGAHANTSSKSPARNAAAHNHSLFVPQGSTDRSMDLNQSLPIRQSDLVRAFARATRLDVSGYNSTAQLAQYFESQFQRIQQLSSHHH

[2] = molecular target: T2, Zinc finger protein mex-5 (Caenorhabditis elegans, UniProt Q9XUB2); assay: MEX-5/TCR-2 RNA interaction inhibitors, dose response, biochemical, C. elegans, fluorescence polarization (AID 1960)
T2 sequence (Q9XUB2 whole entry): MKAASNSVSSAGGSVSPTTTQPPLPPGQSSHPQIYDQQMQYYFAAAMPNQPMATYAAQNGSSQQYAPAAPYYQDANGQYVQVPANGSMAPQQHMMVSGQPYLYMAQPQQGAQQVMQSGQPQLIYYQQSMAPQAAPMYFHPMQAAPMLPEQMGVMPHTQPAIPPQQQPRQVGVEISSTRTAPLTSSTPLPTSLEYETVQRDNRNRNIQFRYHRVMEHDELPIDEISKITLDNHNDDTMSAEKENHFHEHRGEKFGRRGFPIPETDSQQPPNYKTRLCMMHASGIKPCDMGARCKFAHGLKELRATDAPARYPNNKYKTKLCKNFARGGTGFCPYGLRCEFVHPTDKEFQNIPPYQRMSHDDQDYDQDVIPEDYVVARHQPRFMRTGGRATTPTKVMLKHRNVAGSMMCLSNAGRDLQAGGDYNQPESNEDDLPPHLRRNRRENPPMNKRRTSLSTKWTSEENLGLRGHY

BJ [3] = assay: cytotoxicity toward BJ-TERT fibroblasts, dose response, cell-based, RAS-independent, luminescence (AID 1933); type: functional; conditions: Homo sapiens
BJ [4] = assay: cells; type: functional, cell-based; conditions: Homo sapiens
BJ [5] = assay: cytotoxicity toward BJ-TERT-LT-ST fibroblasts, dose response, cell-based, RAS-independent, luminescence (AID 1935); type: functional; conditions: Homo sapiens;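 further: BJ fibroblasts immortalized with TERT plus LT and ST oncogenes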
[6] = cytotoxicity toward DRD oncogenic fibroblasts, dose response, cell-based, non-viral oncogenic, luminescence (AID 1934); type: functional; conditions: Homo sapiens
[7] = molecular target: T3, Heat shock factor protein 1 (Mus musculus, UniProt P38532); assay: HSF1 potentiators in luciferase reporter cells, confirmation, cell-based, NIH3T3, luminescence, dose retest (AID 435004); type: functional;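 further: stress induced by proteasome inhibitor MG132 added 30 min after compound; luciferase reporter driven by HSF1 response element in NIH3T3 cells; actives raise luminescence as potentiators of the MG132 stress response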
T3 sequence (P38532 whole entry): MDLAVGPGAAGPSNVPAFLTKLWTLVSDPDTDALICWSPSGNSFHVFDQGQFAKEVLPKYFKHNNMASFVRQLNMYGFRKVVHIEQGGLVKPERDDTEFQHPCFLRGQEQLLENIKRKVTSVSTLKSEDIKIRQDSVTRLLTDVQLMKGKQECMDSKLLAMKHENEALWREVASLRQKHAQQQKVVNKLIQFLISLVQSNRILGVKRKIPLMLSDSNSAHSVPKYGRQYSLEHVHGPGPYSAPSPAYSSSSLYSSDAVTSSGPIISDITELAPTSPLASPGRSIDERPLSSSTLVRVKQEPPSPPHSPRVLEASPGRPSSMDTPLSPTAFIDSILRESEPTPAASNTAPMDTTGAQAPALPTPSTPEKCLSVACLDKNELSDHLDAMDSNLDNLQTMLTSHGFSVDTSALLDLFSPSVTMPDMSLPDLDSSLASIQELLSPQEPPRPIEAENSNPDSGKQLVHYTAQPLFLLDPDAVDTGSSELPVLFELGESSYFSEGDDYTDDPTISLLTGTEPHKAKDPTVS

H9c2 = assay: cells; type: functional, cell-based; conditions: Rattus norvegicus, H9c2, Myocardium;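 further: confirmatory concentration-response retest of ultra-high-throughput screening hits for modulation of myocardial damage; cell death induced by hydrogen peroxide oxidative stress; compound pretreatment for 60 min then peroxide exposure for 2 h; potency is for protecting the cells against peroxide damage rather than for killing them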
[8] = growth suppression of PTEN-null colon cells, dose response, cell-based, HCT116 PTEN knockout (AID 1047); type: functional;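 further: HCT116 colon tumor cells with PTEN knocked out; cells exposed to compound for 60 hours before readout; potency for loss of cell viability measured by luminescence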
[9] = growth suppression of beta-catenin-knockout colon cells, dose response, cell-based, HCT116, human colon tumor (AID 1045); type: functional;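 further: HCT116 colon tumor cells with beta catenin knocked out; cells exposed to compound for 60 hours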
INS1 = assay: beta cell apoptosis inhibitors, cytokine rescue, dose response, luminescence, retest (AID 449756); type: functional, cell-based; conditions: Rattus norvegicus;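 further: cell death triggered by IL-1 beta plus TNF-alpha plus IFN-gamma mixture; protective hits raise ATP signal compared with cytokine alone wells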
[10] = Luminescence Cell-Based Dose Retest to Confirm Inhibitors of Cancer Stem Cells. [Related pubchem assays (depositor defined):AID2717, AID2721]; type: functional; conditions: Homo sapiens
[11] = molecular target: T4, Rac GTPase-activating protein 1 (Homo sapiens, UniProt Q9H0H5); assay: MgcRacGAP GTPase-activating activity inhibitors, confirmation, biochemical, ADP Hunter fluorescence, primary and confirmatory (AID 624330); type: functional
T4 sequence (Q9H0H5 whole entry): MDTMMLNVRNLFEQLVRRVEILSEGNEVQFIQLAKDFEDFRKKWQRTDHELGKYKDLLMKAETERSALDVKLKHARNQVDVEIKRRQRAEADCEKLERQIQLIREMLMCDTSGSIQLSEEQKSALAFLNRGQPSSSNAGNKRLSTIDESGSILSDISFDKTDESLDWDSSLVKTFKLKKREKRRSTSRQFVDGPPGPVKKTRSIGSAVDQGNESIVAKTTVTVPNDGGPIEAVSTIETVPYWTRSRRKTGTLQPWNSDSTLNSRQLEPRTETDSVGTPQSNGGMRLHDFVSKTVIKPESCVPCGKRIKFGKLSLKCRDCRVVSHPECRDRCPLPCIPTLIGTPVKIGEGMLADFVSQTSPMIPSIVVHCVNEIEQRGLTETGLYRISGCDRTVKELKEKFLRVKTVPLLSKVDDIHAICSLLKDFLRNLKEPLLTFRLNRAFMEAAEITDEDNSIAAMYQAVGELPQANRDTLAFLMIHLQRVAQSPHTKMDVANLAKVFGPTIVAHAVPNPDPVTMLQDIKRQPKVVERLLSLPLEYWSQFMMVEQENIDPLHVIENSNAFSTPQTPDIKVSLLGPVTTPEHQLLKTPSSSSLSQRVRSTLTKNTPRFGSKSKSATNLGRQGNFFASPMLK

[12] = molecular target: Luciferin 4-monooxygenase (Photinus pyralis, UniProt P08659); assay: firefly luciferase enzyme inhibitors, dose response, biochemical, luminescence (AID 1891)
Sequence of Luciferin 4-monooxygenase (P08659 whole entry): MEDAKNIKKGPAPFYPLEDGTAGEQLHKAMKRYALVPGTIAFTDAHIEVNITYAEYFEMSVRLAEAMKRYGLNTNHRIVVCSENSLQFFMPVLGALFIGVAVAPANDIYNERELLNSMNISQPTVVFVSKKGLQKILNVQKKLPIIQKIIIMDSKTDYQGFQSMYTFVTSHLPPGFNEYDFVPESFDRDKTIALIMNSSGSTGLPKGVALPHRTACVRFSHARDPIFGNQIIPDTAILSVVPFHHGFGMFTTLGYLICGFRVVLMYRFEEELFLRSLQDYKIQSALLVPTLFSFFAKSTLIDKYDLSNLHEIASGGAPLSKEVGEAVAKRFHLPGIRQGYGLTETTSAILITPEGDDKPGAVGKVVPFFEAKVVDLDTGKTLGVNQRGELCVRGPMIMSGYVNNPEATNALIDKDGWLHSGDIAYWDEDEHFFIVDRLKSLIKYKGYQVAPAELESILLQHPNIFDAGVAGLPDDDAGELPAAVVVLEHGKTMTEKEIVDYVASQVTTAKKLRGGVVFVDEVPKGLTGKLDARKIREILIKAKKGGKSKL

[13] = Luminescence Cell-Based Dose Confirmation HTS to Identify Inhibitors of Platelet Dense Granule Release. [Related pubchem assays: 1663 (Primary HTS), 1678 (Summary of Project)]; type: functional
[14] = molecular target: Heat shock protein HSP 90-alpha (Homo sapiens, UniProt P07900); type: functional, organism-based
[15] = Shn3 3'UTR reporter inhibitors, dose response, cell-based, Clone20 osteoblasts, firefly luciferase, cherry-picked (AID 624132); type: functional;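 further: firefly luciferase luminescence from reporter carrying the Shn3 3'UTR in osteoblasts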
[16] = control 3'UTR Renilla luciferase suppression, dose response, counter-screen for Shn3 inhibitor project, cell-based, Clone20-Shn3RL, cherry-picked (AID 624133); type: functional
[17] = molecular target: T5, Calpain-2 catalytic subunit (Sus scrofa, UniProt P43367); assay: pig calpain II inhibitor potency, dose response, biochemical, fluorogenic peptide substrate (AID 1420); type: functional
T5 sequence (P43367 whole entry): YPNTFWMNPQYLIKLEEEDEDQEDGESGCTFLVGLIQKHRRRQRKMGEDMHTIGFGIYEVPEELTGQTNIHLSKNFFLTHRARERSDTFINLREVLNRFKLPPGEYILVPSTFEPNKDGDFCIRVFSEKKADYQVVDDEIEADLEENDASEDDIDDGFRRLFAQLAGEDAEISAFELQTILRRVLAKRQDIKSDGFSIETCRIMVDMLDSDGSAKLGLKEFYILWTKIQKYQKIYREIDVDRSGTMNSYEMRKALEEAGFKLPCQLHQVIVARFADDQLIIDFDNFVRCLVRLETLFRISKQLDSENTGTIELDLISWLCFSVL

Cytochrome P450 2C19 = Cytochrome P450 2C19 (Homo sapiens, UniProt P33261); assay: Cytochrome panel assay with activity outcomes. Panel member name: p450-cyp2c19 Compounds with AC50 equal or less than 10 uM are considered active; type: functional
Sequence of Cytochrome P450 2C19 (P33261 whole entry): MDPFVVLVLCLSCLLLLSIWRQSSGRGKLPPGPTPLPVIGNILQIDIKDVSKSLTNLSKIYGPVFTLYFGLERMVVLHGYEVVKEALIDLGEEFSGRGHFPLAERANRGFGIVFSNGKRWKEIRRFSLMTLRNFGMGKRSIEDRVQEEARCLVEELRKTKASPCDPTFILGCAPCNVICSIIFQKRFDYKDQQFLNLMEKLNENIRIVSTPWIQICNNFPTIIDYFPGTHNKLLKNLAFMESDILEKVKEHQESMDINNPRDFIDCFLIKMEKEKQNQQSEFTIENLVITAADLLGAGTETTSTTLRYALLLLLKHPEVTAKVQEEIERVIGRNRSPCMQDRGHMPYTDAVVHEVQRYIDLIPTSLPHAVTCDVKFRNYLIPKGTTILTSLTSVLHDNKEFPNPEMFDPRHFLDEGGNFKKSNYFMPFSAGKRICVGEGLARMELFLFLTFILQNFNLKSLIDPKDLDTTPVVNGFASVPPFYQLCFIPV

Cytochrome P450 3A4 = Cytochrome P450 3A4 (Homo sapiens, UniProt P08684);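 further: CYP3A4 tested as one member of a cytochrome P450 panel screen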
Sequence of Cytochrome P450 3A4 (P08684 whole entry): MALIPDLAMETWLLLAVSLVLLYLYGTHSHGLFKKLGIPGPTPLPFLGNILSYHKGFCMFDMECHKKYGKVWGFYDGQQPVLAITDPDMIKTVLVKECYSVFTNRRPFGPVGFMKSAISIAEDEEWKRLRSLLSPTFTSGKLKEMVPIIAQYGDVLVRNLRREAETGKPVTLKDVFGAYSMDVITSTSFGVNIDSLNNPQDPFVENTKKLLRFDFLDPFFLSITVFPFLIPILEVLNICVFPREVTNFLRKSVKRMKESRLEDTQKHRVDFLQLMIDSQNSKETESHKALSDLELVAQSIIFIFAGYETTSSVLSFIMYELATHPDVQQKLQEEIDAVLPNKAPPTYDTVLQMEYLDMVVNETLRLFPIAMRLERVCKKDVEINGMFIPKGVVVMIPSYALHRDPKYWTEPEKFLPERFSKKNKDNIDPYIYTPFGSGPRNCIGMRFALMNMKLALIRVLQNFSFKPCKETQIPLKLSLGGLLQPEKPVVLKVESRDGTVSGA

SN12K1 = assay: cells; type: functional; conditions: Homo sapiens

Cc1ccc(NC(=O)Cn2c(=O)c(C)nc3ccccc32)cc1
EC50 [1]: > 300 µM (not active)
EC50 [2]: > 300 µM (not active)

C/C(=N\NC(=O)CC1N=C(Cc2ccccc2)NNC1=O)c1ccc(C)cc1 (centres undefined)
EC50 (BJ [3]): > 150 µM (not active)
EC50 (BJ [4]): > 150 µM (not active)
EC50 (BJ [5]): > 150 µM (inconclusive)
EC50 [6]: 44.3 µM (active)
EC50 [7]: > 260 µM (inactive)

CCOC(=O)N1CCN(C(=O)CSc2nc(O)c3cnn(-c4ccc(C)cc4)c3n2)CC1
IC50 (H9c2): 31.6 µM (inactive)

Cc1ccc(-n2c(=O)c(C#N)cc3c(=O)n4ccccc4nc32)cc1C
EC50 [1]: > 300 µM (not active)
EC50 [2]: 55.8 µM (active)

Cc1ccc2nc(NC(=O)/C=C/c3ccc4c(c3)OCO4)sc2c1
EC50 [8]: 4.16 µM (active)
EC50 [9]: 4.66 µM (active)
AC50 (INS1): 3.6 µM (active)

Cn1c(-c2ccc(Cl)cc2)cnc1N
IC50 (H9c2): > 79 µM (inactive)

C=Cn1ccnc1P(=S)(c1ccc2c(c1)c1ccccc1n2CC)c1nccn1C=C
EC50 [8]: 4.12 µM (active)
EC50 [9]: 4.28 µM (active)
AC50 [10]: 1.5 µM (active)

CC/N=C1\S/C(=C\c2ccc(O)c(OCC)c2)C(=O)N1CC
IC50 [11]: 37.9 µM (active)

COc1ccccc1C(=O)Nc1ccnn1C1CCN(C(C)CSC)CC1 (centres undefined)
EC50 [1]: > 300 µM (not active)
EC50 [2]: > 300 µM (inconclusive)

O=[N+]([O-])c1ccc(N=Nc2c(Cl)cc(O)cc2Cl)cc1
EC50 (BJ [3]): 5.98 µM (active)
EC50 (BJ [4]): 4.44 µM (active)
EC50 [12]: 0.137 µM (active)
EC50 [13]: 1.98 µM (active)
EC50 (BJ [5]): 5.78 µM (active)
EC50 [6]: 4.74 µM (active)
AC50 [14]: 0.574 µM (active)
AC50 (INS1): 1.73 µM (active)

O=C1Nc2ccccc2/C1=C1\SC(=S)N(Cc2ccccc2Cl)C1=O
EC50 (BJ [3]): 10.8 µM (inconclusive)
EC50 (BJ [4]): > 150 µM (not active)
EC50 (BJ [5]): > 75 µM (inconclusive)
EC50 [6]: 23 µM (active)

O=C(CCc1nc(O)c2ccccc2n1)NNC(=O)c1cccc(Cl)c1
IC50 (H9c2): > 79 µM (inactive)

Cc1cnc(C(=O)Oc2ccc(-c3ccccc3)cc2)cn1
IC50 [11]: 12.5 µM (active)

S=C(Nc1ccccc1)Nc1ccc(OCc2ccc(Cl)cc2Cl)cc1
AC50 [15]: 0.405 µM (active)
AC50 [16]: 0.406 µM (active)

Cn1c(-n2c(CCCN3C(=O)c4ccccc4C3=O)nc3ccccc3c2=O)nc2ccccc21
IC50 (H9c2): 15.3 µM (active)

Cc1nn(-c2ccccc2)c(N2CCCC2)c1/C=N/NC(=O)c1cc(-c2ccccn2)nc2ccccc12
IC50 (H9c2): > 79 µM (inactive)

CC1CCc2nn(CC(=O)NCCN3CCCCC3C)cc2C1 (centres undefined)
EC50 [1]: > 300 µM (not active)
EC50 [2]: > 300 µM (not active)

O=C(c1ccccc1)c1coc2ccc(O)c(Cl)c12
IC50 [11]: 75.4 µM (active)

COc1cccc(C(=O)Nc2cccc(-c3nnc(-c4ccco4)o3)c2)c1
IC50 [17]: > 50 µM (not active)
IC50 (H9c2): 28.2 µM (active)

Fc1ccc(CSc2ccc3nnc(-c4cccnc4)n3n2)cc1
IC50 (H9c2): > 79 µM (inactive)

O=C1/C(=C/c2cccnc2)CCC/C1=C\c1cccnc1
EC50 [8]: 1.43 µM (active)
EC50 [9]: 1.09 µM (active)
AC50 (INS1): 3.04 µM (active)

CCC1=Nc2cc(C(=O)NCCN3CCOCC3)ccc2Sc2ccccc21
EC50 (BJ [3]): > 150 µM (not active)
EC50 (BJ [4]): > 150 µM (not active)
EC50 (BJ [5]): > 150 µM (not active)
EC50 [6]: > 150 µM (not active)

COc1ccc(Cc2nnc(O)c3ccccc23)cc1OC
AC50 (Cytochrome P450 2C19): 31.6 µM (inconclusive)
IC50 (H9c2): 7.28 µM (active)
AC50 (Cytochrome P450 3A4): 22.4 µM (inconclusive)

C[C@@](O)(/C=C/[C@H]1CC=CC(=O)O1)[C@@H](C[C@@H](O)\C=C/C=C\C=C\CO)OP(=O)(O)O [FOSTRIECIN SODIUM]
GI50 (SN12K1): 3.72 µM (inactive)

CC(OC(=O)Cn1[nH]c(=O)c2ccccc2c1=O)C(=O)Nc1ccc(F)cc1Cl (centres undefined)
IC50 (H9c2): > 79 µM (inactive)

O=C(CCC1CCCC1)N1CCN(C2CCCC2)CC1
IC50 [11]: 209 µM (active)

Cc1cccc(Nc2nc(N)c([N+](=O)[O-])c(N3CC(C)CC(C)C3)n2)c1 (centres undefined)
EC50 [8]: 13.1 µM (active)
EC50 [9]: 15.1 µM (active)
AC50 [10]: 6.36 µM (active)
AC50 [14]: 7.38 µM (active)
AC50 (INS1): 8.89 µM (active)

COc1ccc(CNCc2cccc(OC)c2OC)cc1Br
IC50 [11]: 149 µM (active)

CN1CCCCC/C1=N\c1ccccc1C#N
IC50 [11]: 113 µM (active)
